# Measured values: patent US4764509A, “Pharmaceutical compositions containing di-gold phosphine” (SmithKline Beckman Corporation, priority 1987, dated 1988)
# Values joined by “and” are separate entries in the source; they are usually repeats but may differ in a detail not shown here. Identical values can stand only once.
# Assays:
# P388 leukemia = experiment: in vivo ip P388 lymphocytic leukemia mouse model (increase in lifespan); parameters: species or system mouse (B6D2F1); conditions: ip Days 1 through 5; figures separated by slashes are from separate experiments; ≥25 percent ILS considered active
# From the text: P388 lymphocytic leukemia is currently the most widely used animal tumor model for screening for antitumor agents and for detailed evaluation of active compounds. This tumor system is widely accepted as an antitumor agent screening tool because it is sensitive to virtually all of the clinically active antineoplastic agents; quantitative and reproducible; amenable for large-scale screening; and predictive for activity in other animal tumor models.
# (§1) 10^6 P388 leukemia cells are inoculated ip in B6D2F1 mice. Twenty-four hours later, if the tumor inoculum proves to be free of bacterial contamination (as determined by 24 hours incubation in thioglycollate broth), animals are randomized into groups of 6 and housed in shoebox cages. The compound to be evaluated is dissolved in a minimal volume of either N,N-dimethylacetamide (DMA) or 95% ethanol (depending upon solubility). An equal volume of saline is added; if the drug comes out of solution an equal volume of polyethoxylated castor oil is added and then saline qs to a concentration such that the desired dose is delivered in 0.5 ml. The final concentration of DMA, ethanol and polyethoxylated castor oil is 10 percent. […] Animals are monitored daily for mortality and experiments are terminated after 45 days. […]
# [1] = maximally tolerated dose in mice, ip qDx5 regimen (P388 experiment); format: in vivo, mouse (B62DF female); conditions: B62DF female mice
# Experimental: as §1, with “percent. Dilutions for lower doses are made with saline so there is a decreasing proportion of organic solvents in the vehicle with decreasing dosage These vehicles provide soluble formulations (or suspensions). Formulations are prepared immediately prior to injection. The compound is administered ip on Days 1 through 5 (i.e. treatment is initiated 24 hrs after tumor inoculation). Each experiment includes three groups of 6 animals as untreated controls and animals treated with a positive control, cisplatin, at two dose levels.” for “percent.”
# B16 melanoma = experiment: in vivo ip B16 melanoma assay (increase in lifespan); parameters: species or system mouse (B6D2F1); conditions: ip daily for ten (10) days; ILS of ≥25% indicates activity
# Experimental: (§2) In this system, groups of eight B6D2F1 mice are inoculated ip with 0.5 ml of a 10% (w:v) brei of B16 melanoma prepared from pooled sc tumors excised at 14-21 days from […] donor mice. Daily treatment is begun 24 hours after tumor implantation and is continued daily for ten (10) days. The route of drug administration is ip. The mice are monitored daily for survival for sixty (60) days. Antitumor activity is assessed by prolongation of median survival time. An ILS of ≥25% indicates activity in this tumor model.
# [2] = maximally tolerated dose in mice, ip qD x 10 regimen (B16 experiment); format: in vivo, mouse (B6D2F1); conditions: B6D2F1 mice, ip qD × 10 regimen
# Experimental: as §2
# ^(b) maximally tolerated dose for B6D2F1 mice on a ip qD ×
# [3] = Struck et al. 1966; cited from earlier work
Compound,"ILS (max): maximum increase in lifespan, mice bearing ip P388 leukemia (P388 leukemia)",MTD (maximally tolerated dose) [1],"ILS: maximum increase in lifespan, mice bearing ip B16 melanoma (B16 melanoma)",MTD (maximally tolerated dose) [2],cytotoxic activity (in words) [3]
"Dichlorobis[1,2-bis(diphenylphosphino)ethane]digold [Compound 1]",81% and 91% and 55%,8 mg/kg,35%,4 mg/kg,
"Dichlorobis[1,2-bis(diethylphosphino)ethane]digold [Compound 2]",29%,16 mg/kg,,,
"c1ccc(P(CCP(c2ccccc2)c2ccccc2)c2ccccc2)cc1 [1,2-bis(diphenylphosphino)ethane]",,,,,cytotoxic activity
